Results published in patent US8211929B2, “Pyrimidine derivatives as kinase modulators and method of use” (Exelixis, Inc., priority 2004, dated 2012).
Where two headings read alike, the source gives them in different places.

Experiments:
[1] = target: T1, (Homo sapiens, UniProt P08069); experiment: IGF1R kinase assay (LCCA), IGF 0P; assay type: biochemical
T1 construct: human IGF1R kinase domain residues M954-C1367; made in house; host or cells: baculovirus expression (insect cells)
Method: (§1) Kinase activity and compound inhibition are investigated using one or more of the three assay formats described below. The ATP concentrations for each assay are selected to be close to the Michaelis-Menten constant (KM) for each individual kinase. Dose-response experiments are performed at 10 different inhibitor concentrations in a 384-well plate format. […] Y=Min+(Max−Min)/(1+(X/IC50)^H) Equation (2)
(§2) IGF1R kinase biochemical activity was assessed using a Luciferase-Coupled Chemiluminescent Kinase assay (LCCA) format. Kinase activity was measured as the percent ATP remaining following the kinase reaction. Remaining ATP was detected by luciferase-luciferin-coupled chemiluminescence. Specifically, the reaction was initiated by mixing test compounds, 3 μM ATP, 4 μM poly EY peptide and 4 nM IGF1R (baculovirus expressed human IGF1R kinase domain residues M954-C1367) in a 20 uL assay buffer (20 mM Tris-HCL pH7.5, 10 mM MgCl2, 0.02% Triton X-100, 1 mM DTT, 2 mM MnCl2). The mixture is incubated at ambient temperature for 2 hours after which 20 uL luciferase-luciferin mix is added and the chemiluminescent signal read using a Wallac Victor^2 reader.

IGF 3P = target: T2, IGF 3P (Homo sapiens, UniProt P08069); experiment: IGF1R kinase assay (LCCA), IGF 3P; assay type: biochemical
T2 construct: human IGF1R kinase domain residues M954-C1367; made in house; host or cells: baculovirus expression (insect cells)
Method: as §1, §2

T1 sequence (P08069 954-1367): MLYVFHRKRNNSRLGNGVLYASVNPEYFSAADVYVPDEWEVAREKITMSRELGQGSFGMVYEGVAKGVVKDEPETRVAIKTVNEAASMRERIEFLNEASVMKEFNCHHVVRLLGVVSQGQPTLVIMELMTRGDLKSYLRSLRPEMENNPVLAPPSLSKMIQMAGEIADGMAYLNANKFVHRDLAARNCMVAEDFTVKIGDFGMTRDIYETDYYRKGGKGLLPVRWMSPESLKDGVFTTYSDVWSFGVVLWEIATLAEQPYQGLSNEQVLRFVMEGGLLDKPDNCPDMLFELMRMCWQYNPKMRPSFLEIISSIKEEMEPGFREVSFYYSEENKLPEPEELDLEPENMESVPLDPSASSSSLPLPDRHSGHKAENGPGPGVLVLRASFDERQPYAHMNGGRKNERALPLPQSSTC
T2 sequence (P08069 954-1367): as above

| Structure (SMILES) | IC50 ([1]; IGF1R kinase LCCA assay) [nM] | IC50 (IGF 3P; IGF1R kinase LCCA assay) [nM] | IC50 [1] [nM] | IC50 (IGF 3P) [nM] |
| --- | --- | --- | --- | --- |
| Cc1cc(Nc2cc(C3CC3)[nH]n2)nc(NCc2cc(-c3ccccc3Br)no2)n1 [Example 525] | 50 to 500 | 50 to 500 | – | – |
| Nc1ncnc2c1c(-c1ccc(NC(=O)C3(C(=O)Nc4ccc(F)cc4)CC3)cc1)cn2CC1CC2CNCC2C1 (stereo not drawn) [Example 347] | > 5000 | > 5000 | – | – |
| Cc1cc(Nc2nc(NCc3cc(-c4ccccc4)no3)ncc2Br)[nH]n1 [Example 19] | 500 to 5000 | 500 to 5000 | – | – |
| Fc1ccc(Nc2ncc(Br)c(Nc3cc(C4CC4)n[nH]3)n2)c(Br)c1 [Example 121] | 50 to 500 | 50 to 500 | – | – |
| FC(F)(F)c1cc(Nc2ncc(Br)c(Nc3cc(C4CC4)n[nH]3)n2)cc(C(F)(F)F)c1 [Example 304] | > 5000 | > 5000 | – | – |
| Cc1cc(Nc2cc(N3CCOCC3)nc(NCc3cc(-c4ccccc4)no3)n2)[nH]n1 [Example 617, N^4-(3-methyl-1H-pyrazol-5-yl)-6-morpholin-4-yl-N^2-[(3-phenylisoxazol-5-yl)methyl]pyrimidine-2,4-diamine] | – | – | 50 to 500 | < 50 |
| Clc1ccccc1Nc1ncc(Br)c(Nc2cc[nH]n2)n1 [Example 192] | 500 to 5000 | 500 to 5000 | – | – |
| Clc1cccc(CCNc2ncc(Br)c(Nc3cc(C4CC4)n[nH]3)n2)c1 [Example 226] | > 5000 | 500 to 5000 | – | – |
| CN1CCN(C(=O)c2cc(Nc3cc(C4CC4)[nH]n3)nc(NCc3cc(-c4ccccc4)no3)n2)CC1 [Example 522] | 50 to 500 | < 50 | – | – |
| Cc1ccc(CNc2ncc(Br)c(Nc3cc(C4CC4)n[nH]3)n2)o1 [Example 142] | 500 to 5000 | 50 to 500 | – | – |
| Cc1cc(Nc2cc(C3CC3)[nH]n2)nc(NCc2cnc[nH]2)n1 [Example 536] | 500 to 5000 | 500 to 5000 | – | – |
| Brc1cnc(Nc2cccc(OCc3ccccc3)c2)nc1Nc1cc(C2CC2)n[nH]1 [Example 269] | > 5000 | > 5000 | – | – |
| Brc1cnc(NCc2cc(-c3ccccc3)cs2)nc1Nc1cc(C2CC2)n[nH]1 [Example 271] | > 5000 | > 5000 | – | – |
| Cc1cc(Nc2cc(N3CCN(C)CC3)nc(NCc3cc(C)no3)n2)[nH]n1 [Example 626, N^2-[(3-methylisoxazol-5-yl)methyl]-6-(4-methylpiperazin-1-yl)-N^4-(3-methyl-1H-pyrazol-5-yl)pyrimidine-2,4-diamine] | – | – | 500 to 5000 | 50 to 500 |
| CN(C)c1ccc(Nc2nccc(Nc3cc(C4CC4)n[nH]3)n2)cc1 [Example 238] | 500 to 5000 | 500 to 5000 | – | – |
| CN1CCN(C(=O)Cc2ccc(Nc3ncc(Br)c(Nc4cc(C5CC5)n[nH]4)n3)cc2)CC1 [Example 37] | 500 to 5000 | 50 to 500 | – | – |
| COc1ccc(C)cc1Nc1ncc(Br)c(Nc2cc(C3CC3)[nH]n2)n1 [Example 147] | 500 to 5000 | 50 to 500 | – | – |
| Cc1cc(Nc2cc(C3CC3)n[nH]2)nc(Nc2ccc(CCC(=O)NCCCN3CCCCC3)cc2)n1 [Example 51] | > 5000 | < 50 | – | – |
| Brc1cnc(N2CCOCC2)nc1Nc1cc(C2CC2)[nH]n1 [Example 200] | > 5000 | 500 to 5000 | – | – |
| Nc1ncnc2c1c(-c1cccc(Oc3ccccc3)c1)cn2C1CCCC1 [Example 354] | > 5000 | > 5000 | – | – |
| Brc1cnc(Nc2cccc3ccccc23)nc1Nc1cc(C2CC2)[nH]n1 [Example 130] | 50 to 500 | 50 to 500 | – | – |
| CCCCNc1cc(C)nc(NCc2cc(-c3ccccc3)no2)n1 [Example 293] | > 5000 | > 5000 | – | – |
| Clc1cc(Br)ccc1Nc1ncc(Br)c(Nc2cc(C3CC3)[nH]n2)n1 [Example 143] | 500 to 5000 | 50 to 500 | – | – |

| Structure (SMILES) | IC50 ([1]; IGF1R kinase LCCA assay) [nM] | IC50 (IGF 3P; IGF1R kinase LCCA assay) [nM] | IC50 [1] [nM] | IC50 (IGF 3P) [nM] |
| --- | --- | --- | --- | --- |
| Brc1cnc(Nc2cccc(Oc3ccccc3)c2)nc1Nc1cc(C2CC2)n[nH]1 [Example 330] | > 5000 | > 5000 | – | – |
| CCN(CC)CCCNC(=O)c1cc(Nc2cc(C3CC3)[nH]n2)nc(NCc2cc(-c3ccccc3)no2)n1 [Example 529] | 50 to 500 | 50 to 500 | – | – |
| Cc1cnc(Nc2ccc(C(=O)NC3CCN(C)CC3)cc2)nc1Nc1cc(C2CC2)n[nH]1 [Example 157] | 500 to 5000 | 500 to 5000 | – | – |
| Brc1cnc(NCc2ccco2)nc1Nc1cc(C2CC2)n[nH]1 [Example 138] | 50 to 500 | 50 to 500 | – | – |
| c1ccc(-c2cc(CNc3nc4c(c(Nc5cc(C6CC6)[nH]n5)n3)CCNC4)on2)cc1 [Example 283] | > 5000 | > 5000 | – | – |
| CN1CCN(CCNc2cc(Nc3cc(C4CC4)[nH]n3)nc(NCc3cc(-c4ccccc4)no3)n2)CC1 [Example 509] | 50 to 500 | < 50 | – | – |
| CC(C)c1cc(CNc2nc(Nc3cc(C4CC4)n[nH]3)cc(N3CCN(CCO)CC3)n2)on1 [Example 663, 2-(4-{6-[(3-cyclopropyl-1H-pyrazol-5-yl)amino]-2-({[3-(1-methylethyl)isoxazol-5-yl]methyl}amino)pyrimidin-4-yl}piperazin-1-yl)ethanol] | – | – | 50 to 500 | < 50 |
| CN1CCN(C(=O)c2cccc(Nc3ncc(Br)c(Nc4cc(C5CC5)n[nH]4)n3)c2)CC1 [Example 128] | 500 to 5000 | 50 to 500 | – | – |
| CN1CCN(c2nc(NCc3cc(-c4ccccc4)no3)nc(Nc3cc(C4CC4)n[nH]3)c2Cl)CC1 [Example 625, 5-chloro-N^4-(3-cyclopropyl-1H-pyrazol-5-yl)-6-(4-methylpiperazin-1-yl)-N^2-[(3-phenylisoxazol-5-yl)methyl]pyrimidine-2,4-diamine] | – | – | 50 to 500 | 50 to 500 |
| CN1CCN(C(=O)CCc2ccc(Nc3ncc(Br)c(Nc4cc(C5CC5)[nH]n4)n3)cc2)CC1 [Example 85] | 500 to 5000 | 50 to 500 | – | – |
| Nc1ncnc2c1c(-c1ccc(NC(=O)C3(C(=O)Nc4ccc(F)cc4)CC3)cc1)cn2CC1CC2CN(C(=O)OCc3ccccc3)CC2C1 (stereo not drawn) [Example 357] | > 5000 | > 5000 | – | – |
| Cc1cc(Nc2cc(C3CC3)n[nH]2)nc(Nc2ccc(N3CCOCC3)cc2)n1 [Example 268] | > 5000 | > 5000 | – | – |
| Cc1cc(Nc2cc(C3CC3)[nH]n2)nc(NCc2nc(-c3ccccc3)cs2)n1 [Example 252] | 500 to 5000 | 500 to 5000 | – | – |
| Brc1cnc(Nc2cc(C3CC3)n[nH]2)nc1Nc1cc(C2CC2)n[nH]1 [Example 133] | 500 to 5000 | 50 to 500 | – | – |
| CSc1ccccc1Nc1ncc(Br)c(Nc2cc(C3CC3)n[nH]2)n1 [Example 131] | 500 to 5000 | 50 to 500 | – | – |
| Clc1c(Nc2cc(C3CC3)n[nH]2)nc(NCc2cc(-c3ccccc3)no2)nc1N1CCOCC1 [Example 624, 5-chloro-N^4-(3-cyclopropyl-1H-pyrazol-5-yl)-6-morpholin-4-yl-N^2-[(3-phenylisoxazol-5-yl)methyl]pyrimidine-2,4-diamine] | – | – | 50 to 500 | 50 to 500 |
| Cc1cc(Nc2cc(N3CCN(C)CC3)nc(NCc3cc(-c4ccccc4)no3)n2)[nH]n1 [Example 618, 6-(4-methylpiperazin-1-yl)-N^4-(3-methyl-1H-pyrazol-5-yl)-N^2-[(3-phenylisoxazol-5-yl)methyl]pyrimidine-2,4-diamine] | – | – | 50 to 500 | < 50 |
| Cc1cc(Nc2cc(C3CC3)[nH]n2)nc(OCc2cc(-c3ccccc3)no2)n1 [Example 584, N-(5-cyclopropyl-1H-pyrazol-3-yl)-6-methyl-2-{[(3-phenylisoxazol-5-yl)methyl]oxy}pyrimidin-4-amine] | – | – | 50 to 500 | 500 to 5000 |
| Clc1ccc(-c2ncc(CNc3ncc(Br)c(Nc4cc(C5CC5)[nH]n4)n3)s2)cc1 [Example 289] | > 5000 | > 5000 | – | – |
| Clc1ccccc1Nc1ncc(Br)c(Nc2ccccc2Cl)n1 [Example 222] | 500 to 5000 | 500 to 5000 | – | – |
| Cc1cc(Nc2cc(C3CC3)n[nH]2)nc(Nc2ccc(CCN3CCCC3)cc2)n1 [Example 551] | 500 to 5000 | 50 to 500 | – | – |
| CN1CCN(c2cc(Nc3cc(C4CC4)[nH]n3)nc(NCc3cc(-c4ccoc4)no3)n2)CC1 [Example 629, N^4-(5-cyclopropyl-1H-pyrazol-3-yl)-N^2-[(3-furan-3-ylisoxazol-5-yl)methyl]-6-(4-methylpiperazin-1-yl)pyrimidine-2,4-diamine] | – | – | 50 to 500 | < 50 |
